The subject of experiment [1] is MCF7. Nature of the experiment: Antiproliferative activity against human MCF7 cells assessed as reduction in cell viability after 48 hrs by MTT assay. Format: functional, cell-based. The conditions noted are these: MCF7, 48 h. (Tetrazolium assays rely on reduction of a dye to a coloured formazan, in cell work by metabolically active cells.)
The test system of experiment [2] is A549. Nature of the experiment: Antiproliferative activity against human A549 cells assessed as cell viability at 10 uM after 72 hrs by MTT assay relative to control. Format: functional. The following applies: A549, 72 h, read-out: Activity.
Experiment [3] in a line: Cytotoxicity against human F180 cells assessed as reduction in cell viability after 48 hrs by MTT assay. It counts as cell-based. The conditions noted are these: F180, 48 h.
In experiment [4] the test system is MCF7. Nature of the experiment: Antiproliferative activity against human MCF7 cells assessed as cell viability at 10 uM after 72 hrs by MTT assay relative to control. It counts as functional. The following applies: MCF7, 72 h, read-out: Activity.
Experiment [5] concerns the target T1, Ectonucleotide pyrophosphatase/phosphodiesterase family member 1 (Homo sapiens) (UniProt P22413).
T1 sequence (whole entry): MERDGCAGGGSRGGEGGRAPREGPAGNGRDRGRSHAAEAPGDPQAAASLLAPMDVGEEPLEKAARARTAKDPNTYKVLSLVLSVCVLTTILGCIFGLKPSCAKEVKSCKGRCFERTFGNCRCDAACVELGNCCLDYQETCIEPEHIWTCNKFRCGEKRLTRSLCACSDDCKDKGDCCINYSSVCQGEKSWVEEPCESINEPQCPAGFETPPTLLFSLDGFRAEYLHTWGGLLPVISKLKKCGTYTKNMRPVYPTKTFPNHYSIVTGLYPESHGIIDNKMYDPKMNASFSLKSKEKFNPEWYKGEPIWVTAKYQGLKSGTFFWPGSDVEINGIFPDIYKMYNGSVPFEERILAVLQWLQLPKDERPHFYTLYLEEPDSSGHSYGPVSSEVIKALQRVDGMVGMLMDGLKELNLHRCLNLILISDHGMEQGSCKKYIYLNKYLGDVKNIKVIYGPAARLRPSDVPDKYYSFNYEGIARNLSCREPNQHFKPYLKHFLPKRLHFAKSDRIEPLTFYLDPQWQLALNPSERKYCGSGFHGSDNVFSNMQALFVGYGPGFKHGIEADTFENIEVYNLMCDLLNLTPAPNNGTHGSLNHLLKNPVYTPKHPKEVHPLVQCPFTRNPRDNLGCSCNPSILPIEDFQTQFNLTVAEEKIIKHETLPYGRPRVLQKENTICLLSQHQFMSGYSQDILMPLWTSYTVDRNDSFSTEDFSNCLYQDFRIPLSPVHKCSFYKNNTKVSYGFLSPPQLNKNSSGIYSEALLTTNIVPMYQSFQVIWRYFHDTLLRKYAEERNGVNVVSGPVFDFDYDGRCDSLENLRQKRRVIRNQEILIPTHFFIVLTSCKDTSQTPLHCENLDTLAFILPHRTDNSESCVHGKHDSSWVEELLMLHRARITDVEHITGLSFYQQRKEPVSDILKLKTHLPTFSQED
Nature of the experiment: Inhibition of human NPP1 expressed in COS-7 cell membranes assessed as reduction in p-nitrophenol production at 100 uM using pNP-TMP as substrate preincubated with enzyme for 15 mins followed by substrate addition and measured after 35 mins relative to control.

In experiment [6] the target is T2, Ectonucleotide pyrophosphatase/phosphodiesterase family member 3 (Homo sapiens, UniProt O14638).
T2 sequence (O14638 whole entry): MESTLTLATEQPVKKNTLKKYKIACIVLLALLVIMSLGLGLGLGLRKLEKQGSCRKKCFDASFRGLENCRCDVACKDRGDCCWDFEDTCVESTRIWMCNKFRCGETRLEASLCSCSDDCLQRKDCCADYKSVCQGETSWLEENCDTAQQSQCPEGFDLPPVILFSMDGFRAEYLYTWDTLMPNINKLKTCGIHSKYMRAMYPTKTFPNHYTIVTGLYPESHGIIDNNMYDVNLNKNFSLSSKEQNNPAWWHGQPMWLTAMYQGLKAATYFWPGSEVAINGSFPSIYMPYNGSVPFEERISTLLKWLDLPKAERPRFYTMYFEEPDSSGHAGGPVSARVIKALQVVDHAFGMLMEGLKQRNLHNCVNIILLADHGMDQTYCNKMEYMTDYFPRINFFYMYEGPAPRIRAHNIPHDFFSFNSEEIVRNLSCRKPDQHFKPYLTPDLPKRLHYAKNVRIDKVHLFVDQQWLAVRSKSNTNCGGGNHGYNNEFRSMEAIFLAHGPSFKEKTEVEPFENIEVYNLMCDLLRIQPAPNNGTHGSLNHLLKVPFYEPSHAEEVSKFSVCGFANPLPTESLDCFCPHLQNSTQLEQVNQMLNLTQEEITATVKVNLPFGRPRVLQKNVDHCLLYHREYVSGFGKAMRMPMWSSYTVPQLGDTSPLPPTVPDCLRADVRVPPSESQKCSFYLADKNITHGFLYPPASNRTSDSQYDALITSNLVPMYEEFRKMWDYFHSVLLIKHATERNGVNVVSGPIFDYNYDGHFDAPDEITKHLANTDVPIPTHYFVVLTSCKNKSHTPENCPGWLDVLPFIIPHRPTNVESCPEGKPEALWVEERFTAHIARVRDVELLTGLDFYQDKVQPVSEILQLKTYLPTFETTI
Put plainly: Inhibition of human NPP3 expressed in COS-7 cell membranes assessed as reduction in p-nitrophenol production using pNP-TMP as substrate preincubated with enzyme for 15 mins followed by substrate addition and measured after 35 mins.

In experiment [7] the test system is A549. Nature of the experiment: Antiproliferative activity against human A549 cells assessed as reduction in cell viability after 48 hrs by MTT assay. It counts as functional, cell-based. The conditions noted are these: A549, 48 h.
Experiment [8] deals with HT-29. Put plainly: Antiproliferative activity against human HT-29 cells assessed as reduction in cell viability after 48 hrs by MTT assay. Format: functional, cell-based. The following applies: HT-29, 48 h.
Experiment [9] deals with HT-29. Put plainly: Antiproliferative activity against human HT-29 cells assessed as cell viability at 10 uM after 72 hrs by MTT assay relative to control. Format: functional. The following applies: HT-29, 72 h, read-out: Activity.
Experiment [10] concerns the target T3, Ectonucleotide pyrophosphatase/phosphodiesterase family member 1 (Homo sapiens, UniProt P22413).
T3 sequence (P22413 whole entry): T1 sequence (whole entry)
Put plainly: Inhibition of human NPP1 expressed in COS-7 cell membranes assessed as reduction in p-nitrophenol production using pNP-TMP as substrate preincubated with enzyme for 15 mins followed by substrate addition and measured after 35 mins.

Experiment [11] in a line: Selectivity index, ratio of IC50 for human F180 cells to IC50 for human HT-29 cells.
Experiment [12] addresses T4, Ectonucleotide pyrophosphatase/phosphodiesterase family member 3 (Homo sapiens) (UniProt O14638).
T4 sequence (whole entry): T2 sequence (O14638 whole entry)
Put plainly: Inhibition of human NPP3 expressed in COS-7 cell membranes assessed as reduction in p-nitrophenol production at 100 uM using pNP-TMP as substrate preincubated with enzyme for 15 mins followed by substrate addition and measured after 35 mins relative to control.

Counter-ions that a name gives are not always drawn. A value given as a limit tells only on which side of the number the result lay.

`CNS(=O)(=O)Oc1ccc(-c2sc3cc(OS(=O)(=O)NC)ccc3c2C(=O)c2ccc(OCCN3CCCCC3)cc2)cc1`: the IC50 (commonly the concentration that inhibits the measured activity by half) was 6 µM with MCF7 [1]; more than 15 µM in experiment [3]; 1550 nM in experiment [6]; 13 µM in the experiment on A549 [7]; 1700 nM in the experiment with HT-29 [8]. The viability at 10 µM turned out to be 58.9% in the experiment on A549 [2], 37.2% in the experiment on MCF7 [4] and 11.5% in the experiment on HT-29 [9]. In addition, the inhibition (in general, how much of the control response was suppressed) in experiment [5] amounted to 36%.
As for `CC(C)(C)c1ccc(S(=O)(=O)Oc2ccc(-c3sc4cc(OS(=O)(=O)c5ccc(C(C)(C)C)cc5)ccc4c3C(=O)c3ccc(OCCN4CCCCC4)cc3)cc2)cc1`, the IC50 is 3.2 µM in the experiment on MCF7 [1]; 11.8 µM in experiment [3]; 290 nM in [10]; 710 nM in [6]; 6.7 µM in the experiment with A549 [7]; 1400 nM in the experiment with HT-29 [8]. The viability at 10 µM with A549 [2] was found to be 7.3%; in the experiment with MCF7 [4], 12.1%; in the experiment on HT-29 [9], 9.9%. Further, the “Ratio IC50” value in [11] was 8.43.
Take `O=C(c1ccc(OCCN2CCCCC2)cc1)c1c(-c2ccc(OS(=O)(=O)c3cccc4cccnc34)cc2)sc2cc(OS(=O)(=O)c3cccc4cccnc34)ccc12`: the viability at 10 µM with A549 [2] was found to be 99.2%; with MCF7 [4], 129%; in the experiment on HT-29 [9], 110%. The inhibition is 42.5% in experiment [12] and 28.7% in [5].
With `CCS(=O)(=O)Oc1ccc(-c2sc3cc(OS(=O)(=O)CC)ccc3c2C(=O)c2ccc(OCCN3CCCCC3)cc2)cc1`, the results for the viability at 10 µM in the experiment with A549 [2], in the experiment on MCF7 [4] and with HT-29 [9] were 90.2%, 118% and 62.2%, respectively. Further, in experiment [5], the inhibition is 35.1%. The IC50 in [6] was 1510 nM.
For the molecule `O=C(c1ccc(OCCN2CCCCC2)cc1)c1c(-c2ccc(OS(=O)(=O)c3ccc(C(F)(F)F)cc3)cc2)sc2cc(OS(=O)(=O)c3ccc(C(F)(F)F)cc3)ccc12`, the IC50 with MCF7 [1] is more than 15 µM; in experiment [3], more than 15 µM; in experiment [10] it was 4010 nM; in experiment [6] it was 230 nM; with A549 [7], more than 15 µM; in the experiment with HT-29 [8] it was 4000 nM. Besides, the figures for the viability at 10 µM in the experiment with A549 [2], in the experiment on MCF7 [4] and in the experiment on HT-29 [9] were 67.7%, 41% and 17.4%, respectively.
In the case of `O=C(c1ccc(OCCN2CCCCC2)cc1)c1c(-c2ccc(OS(=O)(=O)c3ccc(F)cc3)cc2)sc2cc(OS(=O)(=O)c3ccc(F)cc3)ccc12`, the figures for the viability at 10 µM in the experiment on A549 [2], in the experiment with MCF7 [4] and in the experiment on HT-29 [9] were 105%, 115% and 108%, respectively. For the same molecule, the concentration for half-maximal inhibition (IC50) in experiment [10] worked out at 8880 nM; in experiment [6], 1810 nM.
On to `CN(C)S(=O)(=O)Oc1ccc(-c2sc3cc(OS(=O)(=O)N(C)C)ccc3c2C(=O)c2ccc(OCCN3CCCCC3)cc2)cc1`, for which the IC50 in the experiment with MCF7 [1] was 3.4 µM; in [3], 14 µM; in experiment [10] it was 4240 nM; in the experiment on A549 [7], more than 15 µM; with HT-29 [8] it was 1500 nM. The viability at 10 µM is 91.8% with A549 [2], 58% in the experiment on MCF7 [4] and 25% in the experiment on HT-29 [9]. The inhibition in experiment [12] was 43.7%.
For `Cc1ccc(S(=O)(=O)Oc2ccc(-c3sc4cc(OS(=O)(=O)c5ccc(C)cc5)ccc4c3C(=O)c3ccc(OCCN4CCCCC4)cc3)cc2)cc1`, the viability at 10 µM in the experiment on A549 [2] came out at 95.2%; with MCF7 [4] it was 116%; in the experiment on HT-29 [9] it was 72.4%. In experiment [10], the IC50 came to 450 nM. Further, the inhibition in experiment [12] worked out at 38.5%.
For the molecule `COc1ccc(S(=O)(=O)Oc2ccc(-c3sc4cc(OS(=O)(=O)c5ccc(OC)cc5)ccc4c3C(=O)c3ccc(OCCN4CCCCC4)cc3)cc2)cc1`, the viability at 10 µM came out at 99.4% with A549 [2], 127% in the experiment with MCF7 [4] and 89.3% in the experiment with HT-29 [9]. Also, the concentration for half-maximal inhibition (IC50) in [10] stood at 420 nM; in experiment [6], 1240 nM.
Take `O=C(c1ccc(OCCN2CCCCC2)cc1)c1c(-c2ccc(O)cc2)sc2cc(O)ccc12` [RALOXIFENE HYDROCHLORIDE]: the half-inhibitory concentration (IC50) is more than 15 µM with MCF7 [1], more than 15 µM in [3], more than 15 µM in the experiment on A549 [7] and more than 15000 nM with HT-29 [8]. Also, the figures for the viability at 10 µM in the experiment on A549 [2], with MCF7 [4] and with HT-29 [9] were 87%, 77.7% and 107%, respectively.
With `O=C(c1ccc(OCCN2CCCCC2)cc1)c1c(-c2ccc(OS(=O)(=O)C3CCCCC3)cc2)sc2cc(OS(=O)(=O)C3CCCCC3)ccc12`, the values for the viability at 10 µM in the experiment with A549 [2], in the experiment with MCF7 [4] and with HT-29 [9] were 104%, 136% and 109%, respectively. For the same molecule, the inhibition in experiment [5] stood at 30%. In experiment [6], the IC50 turned out to be 490 nM.

These data come from ChEMBL document CHEMBL4311954, “Synthesis, biological evaluation, and docking studies of new raloxifene sulfonate or sulfamate derivatives as inhibitors of nucleotide pyrophosphatase/phosphodiesterase” (Eur J Med Chem, 2019).
